The subject of one test is HFD-fed mice. Briefly: High fat diet (HFD) mice: fasting blood glucose, glucose tolerance test, insulin tolerance test. The format is in vivo. The following applies: mice fed HFD 12 weeks. Here is the method: Another model was generated of insulin resistance by feeding wild type mice a high fat diet (HFD: 58% kcal from fat, Research Diets, New Brunswick, N.J.) for 12 weeks while control mice were fed the regular diet (RD: 11% kcal from fat). To study the effect of p-Stat3 on insulin resistance, HFD-fed mice were randomly assigned to two subgroups: one subgroup was injected intraperitoneally (i.p.) with TTI-101 (12.5 mg/kg body weight in D5W) every other day for 4 weeks, while the other subgroup received an identical volume of D5W for 4 weeks. For glucose tolerance tests (GTT), mice with free access to water were fasted for 16 hrs and then injected intraperitoneally (i.p.) with […] and tail vein blood was collected at 0, 30, 60 and 120 min intervals to measure blood glucose concentrations using a True Track Glucometer. For insulin tolerance test (ITT), mice were fasted for 4 hrs, then were injected i.p. with 2 units/kg insulin; tail vein blood was collected after 0, 30, 60 and 120 min to measure blood glucose concentrations. Changes in blood glucose were analyzed as the “area under curve” (AUC) method using Statstodo program (http://www.statstodo.com/AUC_Exp.php).

Test [1] relates to Fbxo40. Briefly: qPCR of Fbxo40 mRNA in TA muscles of CKD mice. The note with it: vs D5W diluent (FIG. 2G). In kind it is in vivo. The procedure:
(§1) Animals: The experimental procedures were approved by the Institutional Animal Care and Use Committee of Baylor College of Medicine. Wild type (WT) mice (C57BL/6) were purchased from Jackson lab (Bar Harbor, Me.). To create a model of CKD, 8-10 week old mice underwent subtotal nephrectomy or sham-operated control as described; ^31 CKD mice with a BUN ˜80 mg/dl were studied. CKD or sham-operated control mice were assigned to two subgroups: one subgroup was injected intraperitoneally with TTI-101 (12.5 mg/kg body weight in D5W) every other day for 2 weeks, while the other subgroup received an identical volume of D5W for 2 weeks.
(§2) RNA extraction and quantitative real-time PCR (qPCR): RNAs were isolated using the RNeasy kit (Qiagen, Valencia, Calif.) as instructed by the company. RT-PCR was performed to obtain relative gene expressions by calculating cycle threshold (Ct) values using GAPDH as an internal control (relative expression=2(sample Ct−GAPDH Ct)).^35 Sequences of primers will be provided upon request.
Background: Real-time PCR tracks product formation cycle by cycle.

For test [2], the system named is p-Akt. Briefly: Western blotting of muscle lysates of HFD mice: p-Akt. The format is in vivo. The following applies: 12.5 mg/kg i.p. every other day for 4 weeks, vs diluent (FIG. 3J). Here is the method:
(§3) Another model was generated of insulin resistance by feeding wild type mice a high fat diet (HFD: 58% kcal from fat, Research Diets, New Brunswick, N.J.) for 12 weeks while control mice were fed the regular diet (RD: 11% kcal from fat). To study the effect of p-Stat3 on insulin resistance, HFD-fed mice were randomly assigned to two subgroups: one subgroup was injected intraperitoneally (i.p.) with TTI-101 (12.5 mg/kg body weight in D5W) every other day for 4 weeks, while the other subgroup received an identical volume of D5W for 4 weeks. Antibodies: The primary antibodies of p-Akt ([…]) (D9E) #4060, Akt (40D4)#2920, p-Stat3 ([…]) (D3A7)#9145, Stat3(124H6)#9139 were from Cell Signaling technology (Beverly, Mass., USA). Antibody against Fbxo40 #ab190688 was from Abcam (Cambridge, Mass., USA). Antibody against IRS1 #611395 was obtained from BD Biosciences (San Jose, Calif.). Anti-GAPDH#PA1-987 was from Thermo Fisher Scientific. The antibody was verified by the molecular size of recognized proteins.
(In general: Immunoblotting shows a protein as a band on a membrane.)

For test [3], the system named is p-Akt. Briefly: Western blotting of gastrocnemius muscle lysates of CKD mice: p-Akt. In kind it is in vivo. The following applies: 12.5 mg/kg i.p. every other day for 2 weeks, western blotting (FIG. 1D). The procedure:
as §1, with “80” for “˜80”, “weeks. Antibodies: The primary antibodies of p-Akt (Ser473) (D9E) #4060, Akt (40D4)#2920, p-Stat3 (Tyr705) ([…])#9145, Stat3(124H6)#9139 were from Cell Signaling technology (Beverly, Mass., USA). Antibody against Fbxo40 #ab190688 was from Abcam (Cambridge, Mass., USA). Antibody against IRS1 #611395 was obtained from BD Biosciences (San Jose, Calif.). Anti-GAPDH#PA1-987 was from Thermo Fisher Scientific. The antibody was verified by the molecular size of recognized proteins.” for “weeks.”

Test [4] concerns mice with CKD. The following applies: earlier experiments (refs 33, 34); cited from earlier work.
The subject of test [5] is IRS1. As to the kind of experiment: Western blotting of muscle lysates of HFD mice: IRS1. The format is in vivo. The following applies: 12.5 mg/kg i.p. every other day for 4 weeks, vs diluent (FIG. 3J). Here is the method:
as §3

In test [6] the test system is mice with CKD. As to the kind of experiment: CKD mice (subtotal nephrectomy): body weight, fasting blood glucose, glucose tolerance test. In kind it is in vivo. The procedure: Animals: The experimental procedures were approved by the Institutional Animal Care and Use Committee of Baylor College of Medicine. Wild type (WT) mice (C57BL/6) were purchased from Jackson lab (Bar Harbor, Me.). To create a model of CKD, 8-10 week old mice underwent subtotal nephrectomy or sham-operated control as described; ^31 CKD mice with a BUN ˜80 mg/dl were studied. CKD or sham-operated control mice were assigned to two subgroups: one subgroup was injected intraperitoneally with TTI-101 (12.5 mg/kg body weight in D5W) every other day for 2 weeks, while the other subgroup received an identical volume of D5W for 2 weeks. For glucose tolerance tests (GTT), mice with free access to water were fasted for 16 hrs and then injected intraperitoneally (i.p.) with […] and tail vein blood was collected at 0, 30, 60 and 120 min intervals to measure blood glucose concentrations using a True Track Glucometer. For insulin tolerance test (ITT), mice were fasted for 4 hrs, then were injected i.p. with 2 units/kg insulin; tail vein blood was collected after 0, 30, 60 and 120 min to measure blood glucose concentrations. Changes in blood glucose were analyzed as the “area under curve” (AUC) method using Statstodo program (http://www.statstodo.com/AUC_Exp.php).

Test [7] concerns IRS1. Briefly: qPCR of IRS1 mRNA in TA muscles of CKD mice. The note with it: vs D5W diluent (FIG. 2H). The format is in vivo. The procedure: as §1, §2
The next test has as its system p-Stat3. Briefly: Western blotting of gastrocnemius muscle lysates of CKD mice: p-Stat3. The following applies: 12.5 mg/kg i.p. every other day for 2 weeks, western blotting (FIG. 1D). In kind it is in vivo.
Test [8] concerns Fbxo40. Briefly: Western blotting of tibialis anterior muscle lysates of CKD mice: Fbxo40 protein. In kind it is in vivo. The following applies: western blotting (FIGS. 2I and 2J). The procedure: as §1, with “80” for “˜80”, “weeks. Antibodies: The primary antibodies of p-Akt (Ser473) (D9E) #4060, Akt (40D4)#2920, p-Stat3 (Tyr705) ([…])#9145, Stat3(124H6)#9139 were from Cell Signaling technology (Beverly, Mass., USA). Antibody against Fbxo40 #ab190688 was from Abcam (Cambridge, Mass., USA). Antibody against IRS1 #611395 was obtained from BD Biosciences (San Jose, Calif.). Anti-GAPDH#PA1-987 was from Thermo Fisher Scientific. The antibody was verified by the molecular size of recognized proteins.” for “weeks.”

Procedure for p-Stat3: Animals: The experimental procedures were approved by the Institutional Animal Care and Use Committee of Baylor College of Medicine. Wild type (WT) mice (C57BL/6) were purchased from Jackson lab (Bar Harbor, Me.). To create a model of CKD, 8-10 week old mice underwent subtotal nephrectomy or sham-operated control as described; ^31 CKD mice with a BUN 80 mg/dl were studied. […] Antibodies: The primary antibodies of p-Akt (Ser473) (D9E) #4060, Akt (40D4)#2920, p-Stat3 (Tyr705) ([MUT])#9145, Stat3(124H6)#9139 were from Cell Signaling technology (Beverly, Mass., USA). Antibody against Fbxo40 #ab190688 was from Abcam (Cambridge, Mass., USA). Antibody against IRS1 #611395 was obtained from BD Biosciences (San Jose, Calif.). Anti-GAPDH#PA1-987 was from Thermo Fisher Scientific. The antibody was verified by the molecular size of recognized proteins.

For the molecule `COc1ccc(S(=O)(=O)Nc2cc(-c3c(O)ccc4ccccc34)c(O)c3ccccc23)cc1` [TTI-101, N-(1′,2-dihydroxy-1,2′-binaphthalen-4′-yl)-4-methoxybenzenesulfonamide], the “fasting values of blood glucose” value in the test on HFD-fed mice (then 12.5 mg/kg i.p. every other day for 4 weeks with HFD continued, vs diluent (FIG. 3G)) is reported as “decreased”. The glucose tolerance result in the test on HFD-fed mice (then 12.5 mg/kg i.p. every other day for 4 weeks, vs diluent (FIG. 3H)) is on record as “improved”; in the test on mice with CKD [6] (12.5 mg/kg i.p. every other day for 2 weeks, vs D5W diluent (FIG. 1C)) it was “significantly improved”. Further, the insulin tolerance result in the test on HFD-fed mice (then 12.5 mg/kg i.p. every other day for 4 weeks, vs diluent (FIG. 3I)) is “improved”. In the test on Fbxo40 [1], the “Fbxo40 mRNA in muscles” value was “suppression”. Besides, in the test with p-Akt [2], the “p-Akt levels in muscles” value is given as “higher levels”. Further, the “p-Akt in muscle lysates” value in the test on p-Akt [3] was “increasing”. Further, the “body weights of mice” value in the test on mice with CKD [4] is recorded as “increases”. Further, the “IRS1 levels in muscles” value in the test with IRS1 [5] is recorded as “higher levels”. Further, the body weight entry with mice with CKD [6] (12.5 mg/kg i.p. every other day, after 2 weeks of treatment, vs D5W diluent (FIG. 1A)) is “increased”. Moreover, in the test with mice with CKD [6] (12.5 mg/kg i.p. every other day, after 2 weeks of treatment, vs D5W diluent (FIG. 1B)), the “blood glucose levels (fasting, 16 hr)” value is listed as “decreased”. Further, the “IRS1 mRNAs in muscles” value with IRS1 [7] is recorded as “increased”. Besides, the “p-Stat3 in muscle lysates” value with p-Stat3 is listed as “suppressed”. Further, the “Fbxo40 protein in muscles” value with Fbxo40 [8] is reported as “significantly decreased”.

(Values after US20230077280A1, “THERAPEUTIC COMPOUNDS FOR METHODS OF USE IN INSULIN RESISTANCE” (Baylor College of Medicine, priority 2019, published 2023).)
